Assay results as given in the NIST ThermoML archive (doi:10.1021/je0601457).

Assay: xn = mol fraction of the nth substance listed
Conditions: linear displacement

CC(=O)c1cnccn1 [2-acetylpyrazine] + O=C=O
Conditions | mass density [kg/m3]
294.75 K, Liquid, x1 = 0.007 | 799
296.15 K, Liquid, x1 = 0.025 | 758
302.35 K, Liquid, x1 = 0.025 | 790
302.35 K, Liquid, x1 = 0.054 | 922
303.35 K, Liquid, x1 = 0.007 | 724
306.25 K, Liquid, x1 = 0.081 | 946
309.45 K, Liquid, x1 = 0.138 | 1276
310.35 K, Liquid, x1 = 0.054 | 837
311.05 K, Liquid, x1 = 0.161 | 938
312.75 K, Gas, x1 = 0.007 | 601
312.95 K, Liquid, x1 = 0.114 | 1092
313.15 K, Liquid, x1 = 0.194 | 954
313.65 K, Gas, x1 = 0.081 | 911
314.35 K, Liquid, x1 = 0.138 | 1258
314.45 K, Gas, x1 = 0.025 | 815
321.25 K, Gas, x1 = 0.054 | 785
321.45 K, Liquid, x1 = 0.161 | 918
321.95 K, Liquid, x1 = 0.194 | 939
322.05 K, Liquid, x1 = 0.295 | 1090
322.25 K, Liquid, x1 = 0.138 | 1238
323.05 K, Liquid, x1 = 0.114 | 1061
332.55 K, Liquid, x1 = 0.448 | 1063
332.75 K, Liquid, x1 = 0.138 | 1216
332.85 K, Gas, x1 = 0.054 | 739
333.45 K, Liquid, x1 = 0.194 | 920
333.45 K, Liquid, x1 = 0.295 | 1014
334.45 K, Gas, x1 = 0.081 | 856
334.95 K, Liquid, x1 = 0.114 | 1023
337.95 K, Liquid, x1 = 0.161 | 887
340.45 K, Gas, x1 = 0.025 | 718
343.75 K, Liquid, x1 = 0.295 | 998
345.75 K, Liquid, x1 = 0.138 | 1187
346.35 K, Liquid, x1 = 0.944 | 1013
348.05 K, Liquid, x1 = 0.448 | 1037
348.55 K, Liquid, x1 = 0.114 | 993
348.75 K, Gas, x1 = 0.054 | 702
351.15 K, Liquid, x1 = 0.194 | 892
353.55 K, Gas, x1 = 0.081 | 807
353.75 K, Liquid, x1 = 0.161 | 863
356.05 K, Liquid, x1 = 0.295 | 979
360.95 K, Liquid, x1 = 0.944 | 996
363.05 K, Liquid, x1 = 0.138 | 1148
364.85 K, Liquid, x1 = 0.114 | 945
366.25 K, Liquid, x1 = 0.448 | 1007
367.85 K, Liquid, x1 = 0.194 | 861
368.75 K, Liquid, x1 = 0.295 | 956
368.85 K, Gas, x1 = 0.025 | 628
369.55 K, Gas, x1 = 0.081 | 772
370.85 K, Liquid, x1 = 0.161 | 832
371.05 K, Liquid, x1 = 0.944 | 992
371.25 K, Gas, x1 = 0.054 | 648
